{"source": "paper PMC9555310", "about": "“Novel inhibitors and activity-based probes targeting serine proteases” (Frontiers in Chemistry, 2022)", "target": "T1, NE (Homo sapiens, UniProt P08246)", "T1 construct": "purchased Calbiochem", "T1 sequence (P08246 30-267)": "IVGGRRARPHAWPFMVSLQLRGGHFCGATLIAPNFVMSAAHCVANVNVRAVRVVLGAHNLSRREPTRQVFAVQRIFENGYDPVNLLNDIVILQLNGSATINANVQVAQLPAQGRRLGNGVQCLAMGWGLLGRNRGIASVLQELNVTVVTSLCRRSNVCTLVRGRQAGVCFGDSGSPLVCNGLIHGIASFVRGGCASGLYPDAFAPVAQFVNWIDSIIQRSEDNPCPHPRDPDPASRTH", "test": "Activity-based profiling of NE (SDS-PAGE, streptavidin-HRP western blot)", "assay_type": "binding", "settings": "50 μM ABP, 30 min, 37°C; labelling extinguished by heat inactivation of NE", "description": "Samples of recombinant protease (trypsin, plasmin, thrombin, chymotrypsin, or HNE, as indicated in the relevant figure legends) were treated with each of the newly synthesized compounds at a concentration of 50 μM, for 30 min, at 37°C. A control sample (no ABP) was prepared by treating the recombinant protease with solvent vehicle (DMF) only, used to prepare the stock solution of each ABP. Samples were also pre-treated (±90°C for 30 min) before being incubated with each putative ABP. With trypsin and thrombin, further samples were prepared where Z-Arg^P-(OPh)2 or NAP559, respectively, was added 30 min prior to the addition of the ABP under examination. […]\nFIGURE 7 Activity Based Profiling of serine proteases by peptide N-Alkyl glycine carbamates. […] CF Sol (sample 26w) was used at a final concentration of 2.5% (v/v), and the level of NE contained therein was measured using Succinyl-Ala-Ala-Pro-Val-NHMec (50 μM), in the absence (-- o --) and presence (-- o --) of NAP800 (50 μM). […]\nFollowing transfer, the extra protein binding sites on the membrane were blocked by addition of 3% (w/v) BSA in TBST (20 mM Tris, 137 mM NaCl, 1% (v/v) Tween 20, pH 7.6) and agitated gently at room temperature for 30 minutes. The biotin-labelled proteases were then detected by addition of Streptavidin-HRP (Vector Laboratories) in 3% (w/v) BSA in TBST at a concentration of 1:20000, for 1 hour at room temperature. […]", "data": [{"smiles": "CC(C)N(CC(=O)NCC(=O)NCC(=O)NCCCOCCOCCOCCCNC(=O)CCCCC1SCC2NC(=O)NC21)C(=O)ON1C(=O)CCC1=O", "note": "(stereo not drawn) [NAP800, Succinimidoyl-CO-NVal-Gly-Gly-PEG-Biotin]", "values": [{"measurement": "labelling of NE by ABP (western blot)", "value": "labels a protein band corresponding to the expected molecular size/mass of NE"}]}]}
